Laboratory results from patent publication US20090215778A1, “Alpha-substituted Arylmethyl Piperazine Pyrazolo [1,5-alpha]Pyrimidine Amide Derivatives” (priority 2007, published 2009).

Key:
[1] = target: T1, HIV Env six-helix bundle (6HB) structure (Human immunodeficiency virus type 1 group M subtype B, UniProt P04579); assay: Six-helix bundle (6HB) assay; format: cell-based, HIV-1 (strain RF)
T1 construct: H9 cells chronically infected with HIV-1 (H9/HIV-1RF); endogenous in cells; host or cells: H9 cells chronically infected with HIV-1 strain RF (Env is made from the virus in the infected cells, not by transfection)
T1 sequence (P04579 32-519): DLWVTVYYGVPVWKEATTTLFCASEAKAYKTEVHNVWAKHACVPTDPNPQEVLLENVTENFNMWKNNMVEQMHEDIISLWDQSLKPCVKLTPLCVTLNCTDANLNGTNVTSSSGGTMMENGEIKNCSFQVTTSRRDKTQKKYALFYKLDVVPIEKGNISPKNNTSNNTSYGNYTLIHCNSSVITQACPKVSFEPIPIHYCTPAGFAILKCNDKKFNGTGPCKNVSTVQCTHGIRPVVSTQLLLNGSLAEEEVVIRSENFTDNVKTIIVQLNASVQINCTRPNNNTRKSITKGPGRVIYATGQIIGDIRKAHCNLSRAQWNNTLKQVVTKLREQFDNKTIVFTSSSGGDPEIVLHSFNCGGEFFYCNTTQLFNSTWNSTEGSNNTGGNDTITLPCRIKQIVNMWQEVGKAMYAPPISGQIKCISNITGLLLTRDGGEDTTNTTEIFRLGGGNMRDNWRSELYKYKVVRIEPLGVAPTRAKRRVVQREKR
T1 sequence (P04579 520-865): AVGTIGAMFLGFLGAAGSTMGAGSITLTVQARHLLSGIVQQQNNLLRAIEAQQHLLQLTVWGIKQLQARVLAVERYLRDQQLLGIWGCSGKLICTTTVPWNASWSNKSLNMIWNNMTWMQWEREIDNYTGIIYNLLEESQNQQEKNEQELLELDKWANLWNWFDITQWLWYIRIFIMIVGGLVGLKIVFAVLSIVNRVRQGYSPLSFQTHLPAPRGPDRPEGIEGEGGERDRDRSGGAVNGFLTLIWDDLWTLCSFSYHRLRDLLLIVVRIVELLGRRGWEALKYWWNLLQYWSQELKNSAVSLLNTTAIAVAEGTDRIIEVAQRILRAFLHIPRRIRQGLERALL
How it was run: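 Chronically HIV-1 RF-infected H9 cells (12-40 days post-infection), 2.5×10^5 per well, were preincubated with compound for 30 min at 37 °C. sCD4 at 1 μg/mL was added for 1 h to trigger Env changes. 6HB-specific rabbit serum (1 h, 37 °C) was then added, followed by PE anti-rabbit (45 min, 4 °C), with flow cytometric fluorescence read-out.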

HIV-1, NL4-3 strain = assay: Virus infection assay (virus entry and single-cycle infection); format: cell-based; conditions: Human immunodeficiency virus 1, NL43, TZM-b1, read-out: Nl4
How it was run: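 TZM-b1 cells (CD4, CXCR4, CCR5; LTR-driven lacZ/luciferase reporters) were infected with HIV-1 NL4-3 (MOI 0.01) with 80 μg/mL DEAE-dextran in the presence of test compound, 4 h at 37 °C before adding complete medium. Infection was quantified one day post-infection as chemiluminescent β-galactosidase signal.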

## COc1ccc(-c2nc3c(C(=O)N4CCN([C@@H](C)c5cccnc5)C[C@H]4C)cnn3c(C(F)(F)F)c2C)cc1 [methanone, [5-(4-methoxyphenyl)-6-methyl-7-(trifluoromethyl)pyrazolo[1,5-α]pyrimidin-3-yl][(2R)-2-methyl-4-[(1S)-1-(3-pyridinyl)ethyl]-1-piperazinyl]-]
[1]
  IC50: < 1 µM
HIV-1, NL4-3 strain
  IC50: < 1 µM

## COc1ccc(-c2nc3c(C(=O)N4CCN(C(CN(C)C)c5ccccc5)C[C@H]4C)cnn3c(C(F)(F)F)c2C)cc1 (stereo partly drawn) [methanone, [(2R)-4-[2-(dimethylamino)-1-phenylethyl]-2-methyl-1-piperazinyl][5-(4-methoxyphenyl)-6-methyl-7-(trifluoromethyl)pyrazolo[1,5-α]pyrimidin-3-yl]-]
[1]
  IC50: < 1 µM
HIV-1, NL4-3 strain
  IC50: < 1 µM

## COc1ccc(-c2nc3c(C(=O)N4CCN(C(C#N)c5ccccc5)C[C@H]4C)cnn3c(C(F)(F)F)c2C)cc1 (stereo partly drawn) [1-piperazineacetonitrile, 4-[[5-(4-methoxyphenyl)-6-methyl-7-(trifluoromethyl)pyrazolo[1,5-α]pyrimidin-3-yl]carbonyl]-3-methyl-α-phenyl-, (3R)-]
[1]
  IC50: < 1 µM
HIV-1, NL4-3 strain
  IC50: < 1 µM

## COc1ccc(-c2nc3c(C(=O)N4CCN(C(CO)c5ccccc5NC(=O)C5CC5)C[C@H]4C)cnn3c(C(F)(F)F)c2C)cc1 (stereo partly drawn) [cyclopropanecarboxamide, N-[2-[2-hydroxy-1-[(3R)-4-[[5-(4-methoxyphenyl)-6-methyl-7-(trifluoromethyl)pyrazolo[1,5-α]pyrimidin-3-yl]carbonyl]-3-methyl-1-piperazinyl]ethyl]phenyl]-]
[1]
  IC50: > 10.1 µM
HIV-1, NL4-3 strain
  IC50: > 10.1 µM

## COc1ccc(-c2nc3c(C(=O)N4CCN(C(CO)c5cccc(CN)c5)C[C@H]4C)cnn3c(C(F)(F)F)c2C)cc1 (stereo partly drawn) [methanone, [(2R)-4-[1-[3-(aminomethyl)phenyl]-2-hydroxyethyl]-2-methyl-1-piperazinyl][5-(4-methoxyphenyl)-6-methyl-7-(trifluoromethyl)pyrazolo[1,5-α]pyrimidin-3-yl]-]
[1]
  IC50: > 10.1 µM
HIV-1, NL4-3 strain
  IC50: > 10.1 µM

## COc1ccc(-c2nc3c(C(=O)N4CCN([C@H](C)c5cc(F)cc(F)c5)C[C@H]4C)cnn3c(C(F)(F)F)c2C)cc1 [methanone, [(2R)-4-[(1R)-1-(3,5-difluorophenyl)ethyl]-2-methyl-1-piperazinyl][5-(4-methoxyphenyl)-6-methyl-7-(trifluoromethyl)pyrazolo[1,5-α]pyrimidin-3-yl]-]
[1]
  IC50: < 1 µM
HIV-1, NL4-3 strain
  IC50: < 1 µM

## COc1ccc(-c2nc3c(C(=O)N4CCN(C(CO)c5cc(F)ccc5F)C[C@H]4C)cnn3c(C(F)(F)F)c2C)cc1 (stereo partly drawn) [methanone, [(2R)-4-[1-(2,5-difluorophenyl)-2-hydroxyethyl]-2-methyl-1-piperazinyl][5-(4-methoxyphenyl)-6-methyl-7-(trifluoromethyl)pyrazolo[1,5-α]pyrimidin-3-yl]-]
[1]
  IC50: < 1 µM
HIV-1, NL4-3 strain
  IC50: < 1 µM

## COc1ccc(-c2nc3c(C(=O)N4CCN(C(CO)c5ccc(Br)nc5)C[C@H]4C)cnn3c(C(F)(F)F)c2C)cc1 (stereo partly drawn) [methanone, [(2R)-4-[1-(6-bromo-3-pyridinyl)-2-hydroxyethyl]-2-methyl-1-piperazinyl][5-(4-methoxyphenyl)-6-methyl-7-(trifluoromethyl)pyrazolo[1,5-α]pyrimidin-3-yl]-]
[1]
  IC50: < 1 µM
HIV-1, NL4-3 strain
  IC50: < 1 µM

## COc1ccc(-c2nc3c(C(=O)N4CCN(C(CO)c5cccnc5Cl)C[C@H]4C)cnn3c(C(F)(F)F)c2C)cc1 (stereo partly drawn) [methanone, [(2R)-4-[1-(2-chloro-3-pyridinyl)-2-hydroxyethyl]-2-methyl-1-piperazinyl][5-(4-methoxyphenyl)-6-methyl-7-(trifluoromethyl)pyrazolo[1,5-α]pyrimidin-3-yl]-]
[1]
  IC50: < 1 µM
HIV-1, NL4-3 strain
  IC50: < 1 µM

## COc1ccc(-c2nc3c(C(=O)N4CCN([C@@H](C)c5oc(C)nc5C)C[C@H]4C)cnn3c(C(F)(F)F)c2C)cc1 [methanone, [(2R)-4-[(1S)-1-(2,4-dimethyl-5-oxazolyl)ethyl]-2-methyl-1-piperazinyl][5-(4-methoxyphenyl)-6-methyl-7-(trifluoromethyl)pyrazolo[1,5-α]pyrimidin-3-yl]-]
[1]
  IC50: 1.1 to 10 µM
HIV-1, NL4-3 strain
  IC50: 1.1 to 10 µM

## COc1ccc(-c2nc3c(C(=O)N4CCN(C(CO)c5ccc(F)cc5)C[C@H]4C)cnn3c(C(F)(F)F)c2C)cc1 (stereo partly drawn) [methanone, [(2R)-4-[1-(4-fluorophenyl)-2-hydroxyethyl]-2-methyl-1-piperazinyl][5-(4-methoxyphenyl)-6-methyl-7-(trifluoromethyl)pyrazolo[1,5-α]pyrimidin-3-yl]-]
[1]
  IC50: < 1 µM
HIV-1, NL4-3 strain
  IC50: < 1 µM

## COc1ccc(-c2nc3c(C(=O)N4CCN(C(CO)c5ccc(OC)cc5)C[C@H]4C)cnn3c(C(F)(F)F)c2C)cc1 (stereo partly drawn) [methanone, [(2R)-4-[2-hydroxy-1-(4-methoxyphenyl)ethyl]-2-methyl-1-piperazinyl][5-(4-methoxyphenyl)-6-methyl-7-(trifluoromethyl)pyrazolo[1,5-α]pyrimidin-3-yl]-]
[1]
  IC50: < 1 µM
HIV-1, NL4-3 strain
  IC50: < 1 µM

## COc1ccc(-c2nc3c(C(=O)N4CCN([C@@H](C)c5ccc(NC(C)=O)cc5)C[C@H]4C)cnn3c(C(F)(F)F)c2C)cc1 [acetamide, N-[4-[(1S)-1-[(3R)-4-[[5-(4-methoxyphenyl)-6-methyl-7-(trifluoromethyl)pyrazolo[1,5-α]pyrimidin-3-yl]carbonyl]-3-methyl-1-piperazinyl]ethyl]phenyl]-]
[1]
  IC50: > 10.1 µM
HIV-1, NL4-3 strain
  IC50: 1.1 to 10 µM

## COc1ccc(-c2nc3c(C(=O)N4CCN(C(CO)c5cccc(NC(=O)C6CC6)c5)C[C@H]4C)cnn3c(C(F)(F)F)c2C)cc1 (stereo partly drawn) [cyclopropanecarboxamide, N-[3-[2-hydroxy-1-[(3R)-4-[[5-(4-methoxyphenyl)-6-methyl-7-(trifluoromethyl)pyrazolo[1,5-α]pyrimidin-3-yl]carbonyl]-3-methyl-1-piperazinyl]ethyl]phenyl]-]
[1]
  IC50: < 1 µM
HIV-1, NL4-3 strain
  IC50: < 1 µM

## COc1ccc(-c2nc3c(C(=O)N4CCN(C(CO)c5ccccc5F)C[C@H]4C)cnn3c(C(F)(F)F)c2C)cn1 (stereo partly drawn) [methanone, [(2R)-4-[1-(2-fluorophenyl)-2-hydroxyethyl]-2-methyl-1-piperazinyl][5-(6-methoxy-3-pyridinyl)-6-methyl-7-(trifluoromethyl)pyrazolo[1,5-α]pyrimidin-3-yl]-]
[1]
  IC50: < 1 µM
HIV-1, NL4-3 strain
  IC50: < 1 µM

## COc1ccc(-c2nc3c(C(=O)N4CCN([C@@H](C)c5sccc5Cl)C[C@H]4C)cnn3c(C(F)(F)F)c2C)cc1 [methanone, [(2R)-4-[(1S)-1-(3-chloro-2-thienyl)ethyl]-2-methyl-1-piperazinyl][5-(4-methoxyphenyl)-6-methyl-7-(trifluoromethyl)pyrazolo[1,5-α]pyrimidin-3-yl]-]
[1]
  IC50: < 1 µM
HIV-1, NL4-3 strain
  IC50: < 1 µM

## COc1ccc(-c2nc3c(C(=O)N4CCN([C@@H](CO)c5ccc(C)s5)C[C@H]4C)cnn3c(C(F)(F)F)c2C)cc1 [methanone, [(2R)-4-[(1S)-2-hydroxy-1-(5-methyl-2-thienyl)ethyl]-2-methyl-1-piperazinyl][5-(4-methoxyphenyl)-6-methyl-7-(trifluoromethyl)pyrazolo[1,5-α]pyrimidin-3-yl]-]
[1]
  IC50: < 1 µM
HIV-1, NL4-3 strain
  IC50: < 1 µM

## COc1ccc(-c2nc3c(C(=O)N4CCN([C@@H](CO)c5ccccc5)C[C@H]4C)cnn3c(C(F)(F)F)c2OC)cc1 [methanone, [(2R)-4-[(1R)-2-hydroxy-1-phenylethyl]-2-methyl-1-piperazinyl][6-methoxy-5-(4-methoxyphenyl)-7-(trifluoromethyl)pyrazolo[1,5-α]pyrimidin-3-yl]-]
[1]
  IC50: < 1 µM
HIV-1, NL4-3 strain
  IC50: < 1 µM

## COc1ccc(-c2nc3c(C(=O)N4CCN(C(C(N)=O)c5ccccc5)C[C@H]4C)cnn3c(C(F)(F)F)c2C)cc1 (stereo partly drawn) [1-piperazineacetamide, 4-[[5-(4-methoxyphenyl)-6-methyl-7-(trifluoromethyl)pyrazolo[1,5-α]pyrimidin-3-yl]carbonyl]-3-methyl-α-phenyl-, (3R)-]
[1]
  IC50: < 1 µM
HIV-1, NL4-3 strain
  IC50: < 1 µM

## COc1ccc(-c2nc3c(C(=O)N4CCN(C(CO)c5cn[nH]c5)C[C@H]4C)cnn3c(C(F)(F)F)c2C)cc1 (stereo partly drawn) [methanone, [(2R)-4-[2-hydroxy-1-(1H-pyrazol-4-yl)ethyl]-2-methyl-1-piperazinyl][5-(4-methoxyphenyl)-6-methyl-7-(trifluoromethyl)pyrazolo[1,5-α]pyrimidin-3-yl]-]
[1]
  IC50: 1.1 to 10 µM
HIV-1, NL4-3 strain
  IC50: 1.1 to 10 µM

## COc1ccc(-c2nc3c(C(=O)N4CCN([C@H](CO)c5ccccc5F)C[C@H]4C)cnn3c(C(F)(F)F)c2C)cc1 [methanone, [(2R)-4-[(1S)-1-(2-fluorophenyl)-2-hydroxyethyl]-2-methyl-1-piperazinyl][5-(4-methoxyphenyl)-6-methyl-7-(trifluoromethyl)pyrazolo[1,5-α]pyrimidin-3-yl]-]
[1]
  IC50: < 1 µM
HIV-1, NL4-3 strain
  IC50: < 1 µM

## COc1ccc(-c2nc3c(C(=O)N4CCN(C(CO)c5cccc(C(F)(F)F)c5)C[C@H]4C)cnn3c(C(F)(F)F)c2C)cc1 (stereo partly drawn) [methanone, [(2R)-4-[2-hydroxy-1-[3-(trifluoromethyl)phenyl]ethyl]-2-methyl-1-piperazinyl][5-(4-methoxyphenyl)-6-methyl-7-(trifluoromethyl)pyrazolo[1,5-α]pyrimidin-3-yl]-]
[1]
  IC50: < 1 µM
HIV-1, NL4-3 strain
  IC50: 1.1 to 10 µM

## COc1ccc(-c2nc3c(C(=O)N4CCN([C@@H](C)c5ccccn5)C[C@H]4C)cnn3c(C(F)(F)F)c2C)cc1 [methanone, [5-(4-methoxyphenyl)-6-methyl-7-(trifluoromethyl)pyrazolo[1,5-α]pyrimidin-3-yl][(2R)-2-methyl-4-[(1S)-1-(2-pyridinyl)ethyl]-1-piperazinyl]-]
[1]
  IC50: < 1 µM
HIV-1, NL4-3 strain
  IC50: < 1 µM
